Results taken from patent US11607464B2, “Compositions and methods for the treatment and imaging of cancer” (BOARD OF REGENTS OF THE UNIVERSITY OF NEBRASKA, priority 2018, dated 2023).

What was measured:
BE(2)-C = assay: Cell survival and LD50 determination (trypan blue exclusion); type: cell-based, human; conditions: value (std err)
Description: (§1) The final concentration of DMSO was maintained at ≤0.5% in all flasks including controls. With each treatment group, duplicate flasks of control cells were grown and harvested alongside treated cells. Each treatment was tested in duplicate in at least two independent experiments (n=4-6 per concentration). Cell numbers were determined after 1 hour, 24 hours, and 48 hours of exposure to drugs using the trypan blue exclusion assay. Aliquots of cell suspension were mixed with a 0.2% solution of trypan blue in PBS (1/1; v/v) and counted in Cellometer® (Nexcelom Bioscience, Lawrence, Mass.). […] The reproductive integrity was also evaluated using a clonogenic survival assay.

SK-N-SH = assay: as above; type: cell-based, human; conditions: value (std err)
Description: as §1

U-87 MG = assay: as above; type: cell-based, human; conditions: value (std err)
Description: as §1, with “Compounds 1 or 2 dissolved in DMSO were added to the appropriate cell culture medium in concentrations ranging from 0 μM to 1.5 μM. Higher concentrations were not evaluated as the amount of DMSO required to maintain the drugs' solubility was not compatible with good cell culture conditions. The final” for “The final”
(§2) Results Cell survival and LD50 determination for compounds 1 and 2 on four human cancer cell lines—BE(2)-C(neuroblastoma), SK-N-SH cells (neuroblastoma), U-87 MG (glioblastoma), and U137 MG.

U137 MG = assay: as above; type: cell-based, human; conditions: value (std err)
Description: as §1, with “Compounds 1 or 2 dissolved in DMSO were added to the appropriate cell culture medium in concentrations ranging from 0 μM to 1.5 μM. Higher concentrations were not evaluated as the amount of DMSO required to maintain the drugs' solubility was not compatible with good cell culture conditions. The final” for “The final”
as §2

[1] = test system: BE(2)-C neuroblastoma cells; assay: Cell survival with drug without and with ionizing radiation (XRT); type: cell-based, human
Description: (§3) Alongside all treatment groups, which included: drug alone (n=4), 4 Gy XRT alone (n=4), and drug+XRT (n=4), quadruplicate flasks of controls cells in medium containing DMSO were grown and harvested under identical culture conditions. Each treatment was tested in at least two independent experiments. The final concentration of DMSO was maintained at 0.5% in all flasks including controls. Cells grown in monolayers (50%-60% confluent) were irradiated at the dose of 4 Gy delivered at the dose rate of 1.36 Gy/minute in a Mark I 68A irradiator (J. L. Shepherd & Associates, San Fernando, Calif.). At designated times after treatment, cells were harvested, their numbers determined and plated at 200 and 500 live cells in duplicate or quadruplicate T25 flasks per each treatment. Cells were left undisturbed for ˜7 days after which time fresh medium was added and colonies were allowed to grow for up to 3 weeks. Colonies were washed with PBS, fixed with methanol, and stained with crystal violet. Briefly, colonies were washed with 5 mL ice-cold PBS, followed by 5 mL PBS/methanol (1:1; v/v), and fixed in 5 mL methanol for 10 minutes. Methanol was removed and flasks were left open to dry for a few hours. Crystal violet (3 mL; 0.25% in 1:1 PBS/methanol) was added to each flask to stain cells. After approximately 10 minutes, the dye was removed, flasks were rinsed with tap water followed by distilled water and were left to dry. Colonies were counted by two independent observers using the ImageJ software.

BE(2)-C cells = assay: Clonogenic survival (reproductive integrity) with drug without and with XRT; type: cell-based, human
Description: as §3

[2] = test system: human glioblastoma cells lines; assay: Cytotoxicity of the nonradioactive analogue; type: cell-based
Description: (§4) Cytotoxicity and radiosensitizing properties of the nonradioactive analogue were determined. Specifically, the cytotoxicity of the nonradioactive analogue N-[5-(3′-iodobenzoyl)-1H-benzimidazol-2-yl]carbamate was measured.

[3] = test system: human neuroblastoma cell lines; assay: Cytotoxicity of the nonradioactive analogue; type: cell-based
Description: as §4

[4] = Solubility in common solvents; type: physicochemical

COC(=O)Nc1nc2cc(C(=O)c3cccc(I)c3)ccc2[nH]1 [Compound 2, Methyl N [5-(3′-iodobenzoyl)-1H-benzimidazol-2-yl]carbamate]
LD50 (BE(2)-C): 0.02 (0.01) uM | LD50 (SK-N-SH): 1.29 (0.24) uM | LD50 (U-87 MG): 0.20 (0.06) uM | LD50 (U137 MG): 2.62 (1.35) uM | cancer cells surviving ([1]; 1 micromolar combined with 4 Gy ionizing radiation (XRT)): 4.8% | cancer cells killed ([1]; 1 micromolar, 24 hour exposure): 89.8% | surviving fractions, cytotoxicity ([1]; SK-N-SH and BE(2)-C cells, 1 μM, without and with XRT, 24 hours after treatment, FIG. 8A): very cytotoxic to the cancer cells, particularly in combination with irradiation | clonogenic survival, cytotoxicity (BE(2)-C cells; BE(2)-C, 1 μM for 24 hours, without and with 4 Gy, FIGS. 8B and 8C): very cytotoxic to the cancer cells, particularly in combination with irradiation | cells surviving, reproductive integrity assay (BE(2)-C cells; combined treatment of 4 Gy XRT and drug): < 0.9% | cells surviving, reproductive integrity assay (BE(2)-C cells; drug alone): 7.8% | cytotoxicity [2]: micromolar range | cytotoxicity [3]: low nM range | solubility in common solvents [4]: quite low solubility
